Among the data in ChEMBL document CHEMBL1129917, “Structure-based design of novel, dipeptide ligands targeting the pp60Src SH2 domain” (Bioorg Med Chem Lett, 1997) are IC50 values, retold here.

The IC50 is the midpoint of a concentration-inhibition curve. A high value points to lower potency.

For this assay, the target named is Proto-oncogene tyrosine-protein kinase Src (Homo sapiens, UniProt P12931). Briefly: Inhibition of [125I]-labeled phosphopeptide binding to a Src protein tyrosine kinase SH2 domain.
Proto-oncogene tyrosine-protein kinase Src, sequence (P12931 2-536 limits assumed): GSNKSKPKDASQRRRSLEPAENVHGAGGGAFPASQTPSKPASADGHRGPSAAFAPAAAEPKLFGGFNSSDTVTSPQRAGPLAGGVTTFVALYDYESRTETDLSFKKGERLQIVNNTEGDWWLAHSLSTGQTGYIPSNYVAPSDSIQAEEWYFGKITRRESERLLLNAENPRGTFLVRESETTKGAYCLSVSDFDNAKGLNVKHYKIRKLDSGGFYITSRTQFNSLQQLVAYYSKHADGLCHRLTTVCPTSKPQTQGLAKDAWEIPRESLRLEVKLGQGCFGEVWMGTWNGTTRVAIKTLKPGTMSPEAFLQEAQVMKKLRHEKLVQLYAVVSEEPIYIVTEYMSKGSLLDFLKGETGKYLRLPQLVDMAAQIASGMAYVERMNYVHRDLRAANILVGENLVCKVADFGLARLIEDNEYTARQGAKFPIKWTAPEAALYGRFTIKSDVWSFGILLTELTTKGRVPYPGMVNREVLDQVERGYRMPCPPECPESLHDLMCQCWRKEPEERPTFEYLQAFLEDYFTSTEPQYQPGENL
Compound `CC(=O)N[C@@H](Cc1ccc(OP(=O)(O)O)cc1)C(=O)N[C@@H](C)C(=O)NCCCc1ccccc1` had an IC50 of 15 µM. The same measure for `CC(=O)N[C@@H](Cc1ccc(OP(=O)(O)O)cc1)C(=O)NCC(=O)NCCCc1ccccc1`: approximately 46 µM. For `CC(=O)N[C@@H](Cc1ccc(OP(=O)(O)O)cc1)C(=O)N[C@@H](C)C(=O)N(CCCC(=O)O)CCCc1ccccc1`, the IC50 is 6.4 µM. The same measure for `CC(=O)N[C@@H](Cc1ccc(OP(=O)(O)O)cc1)C(=O)N[C@@H](CCC(=O)O)C(=O)N(C)CCCc1ccccc1`: 3.5 µM; for `CC(=O)N[C@@H](Cc1ccc(OP(=O)(O)O)cc1)C(=O)N[C@@H](CCC(=O)O)C(=O)N(CCCC(=O)O)CCCc1ccccc1`: 2 µM. The same measure for `CCC[C@H](NC(=O)[C@H](Cc1ccc(OP(=O)(O)O)cc1)NC(C)=O)C(=O)NCCCc1ccccc1`: 12 µM; for `CCc1ccccc1CCNC(=O)[C@H](CCC(=O)O)NC(=O)[C@H](Cc1ccc(OP(=O)(O)O)cc1)NC(C)=O`: 4.6 µM. The same measure for `CC(=O)N[C@@H](Cc1ccc(OP(=O)(O)O)cc1)C(=O)N[C@@H](Cc1ccc(OP(=O)(O)O)cc1)C(=O)NCCCc1ccccc1`: 3.9 µM; for `CCCC(NC(=O)[C@H](Cc1ccc(OP(=O)(O)O)cc1)NC(C)=O)C(=O)N(CCCC(=O)O)CCCc1ccccc1` (stereo partly specified): 4.3 µM; for `CC(=O)N[C@@H](Cc1ccc(OP(=O)(O)O)cc1)C(=O)NCC(=O)N(CCCC(=O)O)CCCc1ccccc1`: 14 µM. In the case of `CC(=O)N[C@@H](Cc1ccc(OP(=O)(O)O)cc1)C(=O)N[C@@H](CCC(=O)O)C(=O)NCCC1=CC=CC2CCCCC12` (stereo partly specified), the IC50 came to 3.2 µM.

On to `CC(=O)N[C@@H](Cc1ccc(OP(=O)(O)O)cc1)C(=O)N[C@@H](Cc1ccc(OP(=O)(O)O)cc1)C(=O)N[C@@H](Cc1ccc(OP(=O)(O)O)cc1)C(N)=O`, for which the IC50 is 0.24 µM. Against the preceding compound, the IC50 is about 13-fold lower. The same measure for `CC(=O)N[C@@H](Cc1ccc(OP(=O)(O)O)cc1)C(=O)N[C@H](C(=O)NCCCc1ccccc1)C(C)C`: approximately 30 µM; for `CC(=O)N[C@@H](Cc1ccc(OP(=O)(O)O)cc1)C(=O)N[C@@H](CCC(=O)O)C(=O)N[C@@H](CCC(N)=O)Cc1cccc2ccccc12`: 2.3 µM; for `CC(=O)N[C@@H](Cc1ccc(OP(=O)(O)O)cc1)C(=O)N[C@@H](CCC(=O)O)C(=O)NCCc1cccc2ccccc12`: 4.8 µM. The same measure for `CC(=O)N[C@@H](Cc1ccc(OP(=O)(O)O)cc1)C(=O)N[C@@H](CCC(=O)O)C(=O)NCCc1ccccc1`: 9.1 µM.
